By IC50 is commonly meant the concentration that gives 50% inhibition. The term Ki denotes the equilibrium dissociation constant of an inhibitor or competing ligand from its target. The ED50 is the dose that gives a 50% effect, or the effect in half of the subjects. As usually defined, the bioavailability is dose-corrected exposure relative to a reference, in per cent. A word on the Kd: it is the free concentration of one partner at which half of the binding sites on the other are occupied at equilibrium, for simple one-to-one binding.

Experimental findings from ChEMBL document CHEMBL1156270, “Small molecule JNK (c-Jun N-terminal kinase) inhibitors” (J Med Chem, 2010) are described below.

In series [1] the target is Mitogen-activated protein kinase 14 (Homo sapiens, UniProt Q16539). Nature of the series: Inhibition of p38alpha.
The target of series [2] is Mitogen-activated protein kinase 10 (Homo sapiens, UniProt P53779). Nature of the series: Inhibition of JNK3.
For series [3], the target named is T1, Mitogen-activated protein kinase 8 (Homo sapiens, UniProt P45983). The series is described as follows: Inhibition of JNK1.
Series [4] has as its system SCG. Nature of the series: Protection against NGF deprivation-induced neuronal apoptosis in rat SCG cells after 24 hrs by MTT assay. The class given is functional, cell-based. For orientation: Formazan colour is commonly taken as a measure of viable cells.
Series [5] deals with Mus musculus. Nature of the series: Reduction of body weight in diet-induced obese mouse at 30 mg/kg, po for 24 days. The class given is functional. On the set-up: scale not given: the % may be the effect or the level left.
In series [6] the target is Mitogen-activated protein kinase 9 (Homo sapiens, UniProt P45984). Nature of the series: Inhibition of JNK2.
Series [7] concerns Mus musculus. Nature of the series: Reduction of fat mass in diet-induced obese mouse at 30 mg/kg, po for 24 days relative to control. Format: functional. On the set-up: scale not given: the % may be the effect or the level left.
The species named for series [8] is Mus musculus. Nature of the series: Inhibition of LPS-induced TNFalpha production in mouse. Format: functional.
Series [9] is described as follows: Oral bioavailability in rat. Format: ADME, organism-based. As to conditions: in vivo.
Series [10] deals with T1, Mitogen-activated protein kinase 8. Nature of the series: Binding affinity to JNK1.

Sequence of Mitogen-activated protein kinase 10 (P53779 whole entry): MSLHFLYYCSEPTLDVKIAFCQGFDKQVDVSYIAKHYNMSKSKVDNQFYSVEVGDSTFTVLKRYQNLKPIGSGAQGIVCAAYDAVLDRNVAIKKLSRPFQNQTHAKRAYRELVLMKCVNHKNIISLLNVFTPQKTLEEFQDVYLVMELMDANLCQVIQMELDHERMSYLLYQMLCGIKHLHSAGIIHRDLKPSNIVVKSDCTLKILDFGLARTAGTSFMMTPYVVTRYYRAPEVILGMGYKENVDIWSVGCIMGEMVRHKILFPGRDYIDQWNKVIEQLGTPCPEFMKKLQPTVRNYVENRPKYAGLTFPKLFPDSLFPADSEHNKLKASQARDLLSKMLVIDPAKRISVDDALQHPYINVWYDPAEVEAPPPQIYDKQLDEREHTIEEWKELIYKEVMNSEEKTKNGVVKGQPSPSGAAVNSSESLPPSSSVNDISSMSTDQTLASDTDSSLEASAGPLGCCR
Sequence of Mitogen-activated protein kinase 14 (Q16539 whole entry): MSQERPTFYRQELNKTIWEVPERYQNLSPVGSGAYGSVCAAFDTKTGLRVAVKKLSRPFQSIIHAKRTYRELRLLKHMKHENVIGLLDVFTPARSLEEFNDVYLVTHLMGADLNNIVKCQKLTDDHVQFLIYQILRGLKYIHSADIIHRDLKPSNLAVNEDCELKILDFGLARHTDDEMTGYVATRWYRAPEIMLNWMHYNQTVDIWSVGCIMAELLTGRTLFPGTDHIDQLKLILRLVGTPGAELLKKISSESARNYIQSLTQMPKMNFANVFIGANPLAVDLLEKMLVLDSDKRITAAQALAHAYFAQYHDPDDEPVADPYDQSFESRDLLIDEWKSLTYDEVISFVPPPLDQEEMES
T1 sequence (P45983 whole entry): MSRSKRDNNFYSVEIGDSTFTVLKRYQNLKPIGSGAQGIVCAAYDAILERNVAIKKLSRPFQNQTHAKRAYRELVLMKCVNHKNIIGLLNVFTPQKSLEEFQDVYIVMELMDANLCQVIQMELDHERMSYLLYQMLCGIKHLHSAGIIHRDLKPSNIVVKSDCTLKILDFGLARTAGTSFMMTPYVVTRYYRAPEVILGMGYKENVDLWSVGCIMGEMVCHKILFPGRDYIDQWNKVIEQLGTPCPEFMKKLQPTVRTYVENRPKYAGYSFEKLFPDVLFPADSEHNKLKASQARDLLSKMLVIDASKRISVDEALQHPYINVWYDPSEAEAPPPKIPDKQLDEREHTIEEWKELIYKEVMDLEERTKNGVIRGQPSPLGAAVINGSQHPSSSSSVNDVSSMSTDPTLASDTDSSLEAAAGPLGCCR
Sequence of Mitogen-activated protein kinase 9 (P45984 whole entry): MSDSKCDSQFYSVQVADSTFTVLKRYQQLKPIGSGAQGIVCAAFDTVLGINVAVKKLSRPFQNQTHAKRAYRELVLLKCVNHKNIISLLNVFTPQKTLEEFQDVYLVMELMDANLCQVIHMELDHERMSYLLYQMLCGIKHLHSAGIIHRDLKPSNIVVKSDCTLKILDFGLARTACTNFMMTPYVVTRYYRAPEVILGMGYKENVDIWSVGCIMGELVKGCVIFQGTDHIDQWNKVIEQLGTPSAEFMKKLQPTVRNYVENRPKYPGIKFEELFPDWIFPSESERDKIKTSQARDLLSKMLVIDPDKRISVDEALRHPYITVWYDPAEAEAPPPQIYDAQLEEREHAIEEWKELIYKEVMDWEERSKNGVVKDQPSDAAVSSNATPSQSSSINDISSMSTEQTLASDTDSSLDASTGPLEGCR

The molecule `O=C(NCCCn1cnc(-c2ccc(F)cc2)c1-c1ccncc1)c1ccccc1` displayed an IC50 in series [1] of 0.046 µM.

Consider `CN(C)CCCC(=O)Nc1cc(C(=O)O)cc(-c2n[nH]c3cc(Nc4ccccc4Cl)ccc23)c1`, for which the IC50 in series [2] was 0.003 µM; in [3] it was 0.101 µM; in [1], 0.903 µM.

`O=C(NCc1ccc(S(=O)(=O)N2CCC(n3nnc4ccccc43)CC2)s1)c1ccc(Cl)cc1`: it took 1.7 µM to reach half-maximal inhibition in series [4] (IC50).

Take `O[C@H]1CC[C@H](Nc2nccc(-c3c[nH]nc3C3CCCOC3)n2)CC1` (some centres undefined): the Ki in series [2] was 0.016 µM; in series [3], 0.009 µM; in series [6] it was 0.017 µM. In addition, the Activity in series [5] turned out to be 13%; in series [7], 30.1%.

On to `CCCNc1nccc(-c2c(-c3ccc(F)cc3)nc3n2[C@H](Cc2ccc(OC)cc2)CC3)n1`, for which the values for the IC50 in series [2] and in series [1] were 0.0109 µM and 0.054 µM, respectively.

Take `c1ccc(Nc2ccc3c(-c4ccccc4)n[nH]c3c2)cc1`: the half-maximal inhibitory concentration (IC50) in [3] was > 10 µM.

Consider `N#C/C(=C1/Nc2ccccc2S1)c1ccnc(NCCc2cccnc2)n1`, for which the ED50 in [8] was found to be 3 mg/kg. The molecule further returned a bioavailability in [9] of 38%.

Turning to `CN(C)c1c(-c2ccnc(N[C@H]3CC[C@H](O)CC3)n2)cnn1Cc1ccccc1`, the results for the Ki in series [2], in [3] and in series [6] were 0.005 µM, 0.003 µM and 0.006 µM, respectively.

As to H-RPKRPTTLNLF-OH, binding in [10] was characterised by a dissociation constant (Kd) of 0.42 µM.
